One data set deals with VRS1. As to the kind of experiment: MIC assay, VISA and VRSA panel. Type of data set: cell-based, Staphylococcus aureus. As for the experimental part:
(§1) The antibacterial activity of the compounds was tested against a panel of bacteria, including Gram-positive bacteria (S. aureus ATCC29213, S. aureus USA300, S. aureus LIM-2, NR-45881, S. aureus HIP13419, NR-46413, E. faecium E155, E. faecium E7314, E. faecium E980, E. faecalis E1246, E. faecalis E7406 and S. pneumonia 153). The antibacterial activity of the compounds was further tested against S. aureus NY-155, NR-46236, S. aureus HIP12864, NR-46074, S. aureus 880 (BR-VRSA), NR-49120, E. faecalis E1246, E. faecalis E7604, as well as some Gram-negative bacteria (Escherichia coli and Klebsiella pneumoniae). Minimum inhibitory concentrations (MICs) in μg/mL were performed according to the CLSI guidelines. From glycerol stocks, bacterial strains were cultured on blood agar plates and incubated at 37° C. for 18 h. A single colony was transferred to tryptic soy broth (TSB) with 0.002% polysorbate 80 (p80). For the Enterococcus, VISA and VRSA strains, the cultures were grown at 37° C. until the optical density of the suspension reached a level equivalent to the 0.5 McFarland standard. The bacterial suspensions were diluted in TSB with 0.002% p80 to reach a bacterial cell density of 10^6 CFU/mL. In case of the other (vancomycin-sensitive) S. aureus strains, the direct colony suspension method was used. For these strains, after transfer of the colonies to TSB with 0.002% p80, they were immediately diluted to 10^6 CFU/mL, instead of incubated prior to this dilution. In the case of S. pneumonia, direct colony suspension was used by immediately suspending multiple colonies from fresh blood agar plates in TSB+0.002% p80 to an OD600 of 0.5 and subsequent dilution to 10^6 CFU mL^−1 in TSB+0.002% p80+5% lysed horse blood. Antibiotic dilutions for this strains were also made in TSB+0.002% p80+5% lysed horse blood. Both agar and microplates containing S. pneumonia were incubated at 37° C. with 5% CO2 for 24 h with constant shaking (600 rpm). […] The cultures were grown to exponential phase (OD600=0.5) at 37° C. […] In polypropylene 96-well microtiter plates, test compounds were added in biological triplicates and serial diluted 2-fold by transfer and mixing from one well to the next to achieve a final volume of 50 μL per well. An equal volume of bacterial suspension (10^6 CFU mL^−1) was added to the wells. The plates were sealed with breathable membranes and incubated at 37° C. for 24 h with constant shaking (600 rpm). In polypropylene microtiter plates, 100 μL of the test compounds was added to the first row in biological triplicates, and 50 μL of media was added to the other wells. The compounds were subjected to serial dilution by transfer and mixing of 50 μL from one well to the next. Subsequently, 50 μL of bacterial suspension (10^6 CFU/mL) was added to the wells. The plates were sealed with breathable membranes and incubated at 37° C. for 24 h with constant shaking (600 rpm). Positive growth control consisted of wells with bacterial suspension and without antibiotic. Negative growth control consisted of solely media without bacterial suspension or antibiotic. The MICs were determined from the median of a minimum of triplicates.

The next data set deals with VRS3a. As to the kind of experiment: MIC assay, VISA and VRSA panel. Format: cell-based, Staphylococcus aureus. As for the experimental part: as §1
In data set [1] the test system is HepG2 human hepatocellular carcinoma cells. The data set can be described thus: Cytotoxicity assay for HepG2 (MTT). Format: cell-based. Particulars: MTT, HepG2, 24 h, 10% FBS. As for the experimental part: (§2) Mammalian cytotoxicity assays were performed by Cyprotex. Cytotoxicity was assessed using the MTT assay. Briefly, HepG2 human hepatocellular carcinoma cells (100 μL per well) were plated on black-walled clear-bottomed polystyrene 96-well tissue culture treated plates 24 h prior to dosing the cells. The cells were dosed with test compound (dissolved in 0.5% DMSO in growth media containing 10% FBS) at a range of concentrations (0.04 μM, 0.1 μM, 0.4 μM, 1 μM, 4 μM, 10 μM, 40 μM, 100 μM). After 23 h period the cells were loaded with the MTT dye (yellow; 3-(4,5-dimethyl-2-thiazolyl)-2,5-diphenyl-2H-tetrazolium bromide) followed by an additional 1 h incubation (resulting in a total incubation time with antibiotics of 24 h). Subsequently, the plates are dried and solubilized in DMSO followed by scanning at 570 nm using a microplate absorbance reader. Cell viability is determined by conversion of the soluble MTT to insoluble formazan (purple) by mitochondrial […] in live cells. Production of formazan indicates […]. Carbonyl cyanide 3-chlorophenylhydrazone is used as no response control and chlorpromazine is used as control known to be cytotoxic. Solvent control wells (0.5% DMSO in growth media containing 10% FBS) are then used to determine significance limits for wells that have a greater than expected fraction of low or high responders. The minimum effective concentration is determined from the lowest concentration whose mean value exceeds the significance level, provided either a clear dose-response relationship is observed, or at least two consecutive concentration points are above the significance level. AC50 values are also determined provided a clear dose-response relationship is observed. Experiment was performed in triplicates.

Data set [2] can be described thus: Cytotoxicity assay for HepG2 (MTT). Format: cell-based, human. The conditions noted are these: human; MTT, HepG2, 24 h, 10% FBS, n = 3; read-out: AC50. As for the experimental part:
as §2

Converted amounts (≈) assume the structure as drawn. A value given as a limit tells only on which side of the number the result lay.

One may read the MIC as the smallest concentration in the dilution series that meets the test's criterion for growth inhibition. Low readings indicate inhibition by little substance, high ones a need for much substance. A word on the AC50: it is the concentration giving half of the maximal activity seen. Consider `CCCCCCCNC(N)=Nc1ccc(CN[C@@]2(C)C[C@H](O[C@H]3[C@H](Oc4c5cc6cc4Oc4ccc(cc4Cl)[C@@H](O)[C@@H](NC(=O)[C@@H](CC(C)C)NC)C(=O)N[C@@H](CC(N)=O)C(=O)N[C@H]6C(=O)N[C@H]4C(=O)N[C@H](C(=O)N[C@H](C(=O)O)c6cc(O)cc(O)c6-c6cc4ccc6O)[C@H](O)c4ccc(c(Cl)c4)O5)O[C@H](CO)[C@@H](O)[C@@H]3O)O[C@@H](C)[C@H]2O)cc1` [Compound 5], for which the MIC is 16 µg/mL (≈ 9.44 µM) in the data set on VRS1 (strain VRS1) and 0.25 µg/mL (≈ 0.148 µM) in the data set on VRS3a (strain VRS3a). Also, the half-maximal activity concentration (AC50) in data set [1] (n = 3) is over 100 µM.
In the case of `CCCCCCN(CCCCCC)C(N)=Nc1ccc(CN[C@@]2(C)C[C@H](O[C@H]3[C@H](Oc4c5cc6cc4Oc4ccc(cc4Cl)[C@@H](O)[C@@H](NC(=O)[C@@H](CC(C)C)NC)C(=O)N[C@@H](CC(N)=O)C(=O)N[C@H]6C(=O)N[C@H]4C(=O)N[C@H](C(=O)N[C@H](C(=O)O)c6cc(O)cc(O)c6-c6cc4ccc6O)[C@H](O)c4ccc(c(Cl)c4)O5)O[C@H](CO)[C@@H](O)[C@@H]3O)O[C@@H](C)[C@H]2O)cc1` [Compound 12], the MIC against VRS1 (strain VRS1) is 4 µg/mL (≈ 2.27 µM); with VRS3a (strain VRS3a) it was under 0.016 µg/mL. For the same molecule, the half-maximal activity concentration (AC50) in data set [1] (n = 3) was over 100 µM.
With `CN[C@H](CC(C)C)C(=O)N[C@H]1C(=O)N[C@@H](CC(N)=O)C(=O)N[C@H]2C(=O)N[C@H]3C(=O)N[C@H](C(=O)N[C@H](C(=O)O)c4cc(O)cc(O)c4-c4cc3ccc4O)[C@H](O[C@H]3C[C@](C)(N)[C@@H](O)[C@H](C)O3)c3ccc(c(Cl)c3)Oc3cc2cc(c3O[C@@H]2O[C@H](CO)[C@@H](O)[C@H](O)[C@H]2O[C@H]2C[C@](C)(NCc3ccc(-c4ccc(Cl)cc4)cc3)[C@@H](O)[C@H](C)O2)Oc2ccc(cc2Cl)[C@H]1O` [Oritavancin], the minimal inhibitory concentration (MIC) was 1 µg/mL (≈ 0.558 µM) against VRS1 (Staphylococcus aureus) and 0.5 µg/mL (≈ 0.279 µM) in the data set with VRS3a (Staphylococcus aureus). Moreover, in data set [1], the “Direction of response (↑↓)” value is listed as “↓”. Besides, in data set [1] (n = 3), the MEC amounted to 76.5 µM. Further, the half-maximal activity concentration (AC50) at 24 h in data set [2] was over 100 µM.
Take `CCCCCCCCCCNCCN[C@@]1(C)C[C@H](O[C@H]2[C@H](Oc3c4cc5cc3Oc3ccc(cc3Cl)[C@@H](O)[C@@H](NC(=O)[C@@H](CC(C)C)NC)C(=O)N[C@@H](CC(N)=O)C(=O)N[C@H]5C(=O)N[C@H]3C(=O)N[C@H](C(=O)N[C@H](C(=O)O)c5cc(O)c(CNCP(=O)(O)O)c(O)c5-c5cc3ccc5O)[C@H](O)c3ccc(c(Cl)c3)O4)O[C@H](CO)[C@@H](O)[C@@H]2O)O[C@@H](C)[C@H]1O` [Telavancin, reference compound]: the MIC against VRS1 (Staphylococcus aureus) turned out to be 8 µg/mL (≈ 4.56 µM); against VRS3a (Staphylococcus aureus), 1 µg/mL (≈ 0.57 µM). Moreover, in data set [2], the AC50 at 24 h was over 100 µM.
In the same order, the values of `CN[C@H](CC(C)C)C(=O)N[C@H]1C(=O)N[C@@H](CC(N)=O)C(=O)N[C@H]2C(=O)N[C@H]3C(=O)N[C@H](C(=O)N[C@H](C(=O)O)c4cc(O)cc(O)c4-c4cc3ccc4O)[C@H](O)c3ccc(c(Cl)c3)Oc3cc2cc(c3O[C@@H]2O[C@H](CO)[C@@H](O)[C@H](O)[C@H]2O[C@H]2C[C@](C)(N)[C@H](O)[C@H](C)O2)Oc2ccc(cc2Cl)[C@H]1O` [Vancomycin, reference compound] are over 128 µg/mL, 64 µg/mL (≈ 44.2 µM) and over 100 µM.
